Results from patent publication US8613929B2, “Methods and compositions for targeting agents into and across the blood-brain barrier and other endothelial cell microvascular barriers” (priority 2003, dated 2013).

Tests used:
[1] = system: BCEC+ astrocyte co-cultures; details: FIG. 2; earlier experiments (Gaillard 2000a); cited from earlier work
LPSS14 (DTR) = LPSS14 (DTR) (Bos taurus, UniProt E1BIN8); assay type: cell-based, bovine
brain cortex [2] = assay: In vivo brain distribution: HRP activity in brain cortex homogenate samples; set-up: species or system Guinea pigs; details: 1.5 h after intracarotid bolus injection, 500 microgram/ml HRP equivalent in 0.5 ml saline (FIG. 18)
Method: Brain uptake of CRM197 or holo-transferrin (TrF) conjugated to HRP (2:1 weight/weight ratio) was determined 1.5 h after an intracarotid bolus injection of the conjugates (corresponding to a concentration of 500 microgram/ml in 0.5 ml saline of un-conjugated HRP), and compared to an equal concentration of free HRP, in young male Guinea pigs (Dunkin-Hartley HsdPoc:HD, 250-300 g). The proteins were conjugated to HRP by means of a HRP conjugation kit according to the manufacturers instructions (α Diagnostic International, San Antonio, Tex., USA). In addition, conjugated proteins were further purified on a HiPrep 16/60 column packed with Sephacryl S-200 HR matrix (Amersham Biosciences, UK). Briefly, the animals were anesthetized with isoflurane inhalation (4% induction, 1-1.5% maintenance) in an air/oxygen mixture (2:1). A cannula was placed in the carotid artery for blood sample collection and drug administration. […]
The cortex of perfused brains (and one non-perfused control brain) was dissected and weighted. […] Tissue/cells were lysed by an aqueous solution of 0.1% Na-deoxycholate (final concentration) before the HRP activity was detected in the clear supernatant of the spun-down homogenates using a standard colorimetric assay with the appropriate calibration curves and corrections for dilutions and protein content of the supernatants.

brain cortex [3] = details: 1.5 h after intracarotid bolus injection (FIG. 19)
brain = details: guinea pig, in vivo

LPSS14 (DTR), sequence (E1BIN8 24-208 limits assumed): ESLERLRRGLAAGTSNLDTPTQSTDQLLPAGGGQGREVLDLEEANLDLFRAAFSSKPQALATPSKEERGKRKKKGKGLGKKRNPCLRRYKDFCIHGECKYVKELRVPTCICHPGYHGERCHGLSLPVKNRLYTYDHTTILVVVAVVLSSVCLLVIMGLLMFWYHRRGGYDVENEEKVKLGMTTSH

C[C@@H]1C[C@@H]([C@H](O)CC2CC(=O)NC(=O)C2)C(=O)[C@@H](C)C1 [cycloheximide]
recovery of BCEC+ astrocyte co-cultures from LPS [1]: completely inhibit the recovery phase

heparin
toxicity consistent with a higher concentration of DT (LPSS14 (DTR); heparin 125 microgram/ml 1 h pretreatment, 100 ng/ml DT): 10 fold | DT toxic effect took place earlier than untreated controls (LPSS14 (DTR); heparin 125 microgram/ml 1 h pretreatment, 100 ng/ml DT (FIG. 9)): about 1 hour | toxic effect after apical exposure to 100 ng/ml DT on pretreated BCEC (LPSS14 (DTR); pretreatment: CRM197 5 microgram/ml 1 h, heparin 125 microgram/ml 1 h, LPS 1 microgram/ml 2 h, BB94 10 micromolar 1 h (FIG. 8-10)): increased

free HRP: un-conjugated horseradish peroxidase, a 40 kDa enzyme
HRP activity in brain cortex homogenate samples (homogenate, parenchyma, capillaries) (brain cortex [2]): below the detection limit | TMB staining of cryosections of well-perfused brains (brain cortex [3]): no visible staining | staining for CRM197 by immunohistochemistry for diphtheria toxin (brain): not observed
